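Dose response: 5 concentrations. Exposure: 48 h. Format: 96-well plates. Endpoint: linear interpolation; highest concentration if not reached. At the TGI there is no net growth.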
Experiments:
Experiment in all cases: growth of human tumour cells (NCI), 48 h
[1] = tested on: 786-0 renal
[2] = tested on: HL-60(TB) leukemia
[3] = tested on: SK-OV-3 ovarian
[4] = tested on: SN12C renal
[5] = tested on: A498 renal
[6] = tested on: OVCAR-4 ovarian
[7] = tested on: ACHN renal
[8] = tested on: OVCAR-8 ovarian
[9] = tested on: PC-3 prostate
[10] = tested on: NCI/ADR-RES ovarian
[11] = tested on: IGROV1 ovarian
[12] = tested on: SF-295 CNS
[13] = tested on: UACC-257 melanoma
[14] = tested on: COLO 205 colon
[15] = tested on: M14 melanoma
[16] = tested on: NCI-H226 lung
[17] = tested on: MOLT-4 leukemia
[18] = tested on: HCT-116 colon
[19] = tested on: SNB-75 CNS
[20] = tested on: SW-620 colon
[21] = tested on: OVCAR-3 ovarian
[22] = tested on: MDA-MB-231 breast
[23] = tested on: SK-MEL-28 melanoma
[24] = tested on: MCF7 breast
[25] = tested on: TK-10 renal
[26] = tested on: CCRF-CEM leukemia
[27] = tested on: SK-MEL-5 melanoma
[28] = tested on: BT-549 breast
[29] = tested on: T-47D breast
[30] = tested on: SF-268 CNS
[31] = tested on: MDA-MB-435
[32] = tested on: EKVX NSCLC
[33] = tested on: HS 578T breast
[34] = tested on: A549 NSCLC
[35] = tested on: OVCAR-5 ovarian
[36] = tested on: HOP-92 NSCLC
[37] = tested on: RPMI-8226 leukemia
[38] = tested on: SR leukemia
[39] = tested on: SK-MEL-2 melanoma
[40] = tested on: RXF 393 renal
[41] = tested on: KM12 colon
[42] = tested on: HCT-15 colon
[43] = tested on: CAKI-1 renal
[44] = tested on: SF-539 CNS
[45] = tested on: MALME-3M melanoma
[46] = tested on: UACC-62 melanoma
[47] = tested on: MDA-N
[48] = tested on: NCI-H23 lung
[49] = tested on: HT29 colon
[50] = tested on: NCI-H460 lung
[51] = tested on: SNB-19 CNS
[52] = tested on: LOX IMVI melanoma
[53] = tested on: NCI-H522 lung
[54] = tested on: U251 CNS
[55] = tested on: K-562 leukemia
[56] = tested on: HOP-62 NSCLC
[57] = tested on: HCC-2998 colon
[58] = tested on: DU-145 prostate
[59] = tested on: UO-31 renal

Measured: TGI

Cc1cccc2c(N)c3cccc(C(=O)NCC[N+]4(Cc5ccc([N+](=O)[O-])cc5)CCOCC4)c3nc12
> 69.2 µM: [17]
> 62.5 µM: [50]
> 86.2 µM: [22]
> 84.9 µM: [53]
58.1 µM: [2]
60.5 µM: [57]
> 77 µM: [33]
98.3 µM: [29]
71.8 µM: [36]
63 µM: [19]
64.2 µM: [38]
58.5 µM: [18]
> 100 µM: all other assays above
